In PubChem BioAssay (NCI):
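The compound was tested at five concentrations on cells cultured in 96-well plates, with a 48-hour exposure period. Definition used: TGI = concentration required for complete inhibition of growth.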

Columns and labels:
Experiment in all cases: NCI anticancer screen, dose series, 48 h
MALME-3M melanoma = tested on: MALME-3M melanoma
HOP-92 NSCLC = tested on: HOP-92 NSCLC
DMS 114 small cell lung = tested on: DMS 114 small cell lung
SNB-75 CNS = tested on: SNB-75 CNS
SNB-19 CNS = tested on: SNB-19 CNS
SK-OV-3 ovarian = tested on: SK-OV-3 ovarian
OVCAR-4 ovarian = tested on: OVCAR-4 ovarian
M14 melanoma = tested on: M14 melanoma
NCI-H23 lung = tested on: NCI-H23 lung
HOP-18 NSCLC = tested on: HOP-18 NSCLC
COLO 205 colon = tested on: COLO 205 colon
UACC-257 melanoma = tested on: UACC-257 melanoma
MOLT-4 leukemia = tested on: MOLT-4 leukemia
SK-MEL-28 melanoma = tested on: SK-MEL-28 melanoma
LXFL 529 NSCLC = tested on: LXFL 529 NSCLC
EKVX NSCLC = tested on: EKVX NSCLC
786-0 renal = tested on: 786-0 renal
DMS 273 small cell lung = tested on: DMS 273 small cell lung
HT29 colon = tested on: HT29 colon
RPMI-8226 leukemia = tested on: RPMI-8226 leukemia
HL-60(TB) leukemia = tested on: HL-60(TB) leukemia
U251 CNS = tested on: U251 CNS
A549 NSCLC = tested on: A549 NSCLC
ACHN renal = tested on: ACHN renal
UO-31 renal = tested on: UO-31 renal
SNB-78 CNS = tested on: SNB-78 CNS
XF 498 CNS = tested on: XF 498 CNS
NCI-H226 lung = tested on: NCI-H226 lung
HCT-116 colon = tested on: HCT-116 colon
SF-295 CNS = tested on: SF-295 CNS
K-562 leukemia = tested on: K-562 leukemia
IGROV1 ovarian = tested on: IGROV1 ovarian
OVCAR-3 ovarian = tested on: OVCAR-3 ovarian
SN12C renal = tested on: SN12C renal
SF-268 CNS = tested on: SF-268 CNS
OVCAR-8 ovarian = tested on: OVCAR-8 ovarian
CCRF-CEM leukemia = tested on: CCRF-CEM leukemia
SW-620 colon = tested on: SW-620 colon
OVCAR-5 ovarian = tested on: OVCAR-5 ovarian
SK-MEL-2 melanoma = tested on: SK-MEL-2 melanoma
KM20L2 colon = tested on: KM20L2 colon
CAKI-1 renal = tested on: CAKI-1 renal
NCI-H522 lung = tested on: NCI-H522 lung
A498 renal = tested on: A498 renal
TK-10 renal = tested on: TK-10 renal
M19-MEL melanoma = tested on: M19-MEL melanoma
LOX IMVI melanoma = tested on: LOX IMVI melanoma
HCT-15 colon = tested on: HCT-15 colon
UACC-62 melanoma = tested on: UACC-62 melanoma
HCC-2998 colon = tested on: HCC-2998 colon
SF-539 CNS = tested on: SF-539 CNS
RXF 393 renal = tested on: RXF 393 renal
SR leukemia = tested on: SR leukemia
DLD-1 colon = tested on: DLD-1 colon
HOP-62 NSCLC = tested on: HOP-62 NSCLC
NCI-H460 lung = tested on: NCI-H460 lung

## O=S(Cc1ccccn1)c1nc2ccccc2nc1-c1ccccc1 (stereo not given)
MALME-3M melanoma
  TGI: 97.7 µM
HOP-92 NSCLC
  TGI: 83.3 µM
DMS 114 small cell lung
  TGI: 69.6 µM
SNB-75 CNS
  TGI: 79.6 µM
SNB-19 CNS
  TGI: > 100 µM
SK-OV-3 ovarian
  TGI: > 100 µM
OVCAR-4 ovarian
  TGI: > 100 µM
M14 melanoma
  TGI: > 100 µM
NCI-H23 lung
  TGI: > 100 µM
HOP-18 NSCLC
  TGI: > 100 µM
COLO 205 colon
  TGI: 32.8 µM
UACC-257 melanoma
  TGI: 82 µM
MOLT-4 leukemia
  TGI: > 100 µM
SK-MEL-28 melanoma
  TGI: > 100 µM
LXFL 529 NSCLC
  TGI: > 100 µM
EKVX NSCLC
  TGI: 73.7 µM
786-0 renal
  TGI: > 100 µM
DMS 273 small cell lung
  TGI: > 100 µM
HT29 colon
  TGI: > 100 µM
RPMI-8226 leukemia
  TGI: 91.3 µM
HL-60(TB) leukemia
  TGI: 80.7 µM
U251 CNS
  TGI: > 100 µM
A549 NSCLC
  TGI: > 100 µM
ACHN renal
  TGI: > 100 µM
UO-31 renal
  TGI: 90.4 µM
SNB-78 CNS
  TGI: 94 µM
XF 498 CNS
  TGI: 47.3 µM
NCI-H226 lung
  TGI: 76.2 µM
HCT-116 colon
  TGI: > 100 µM
SF-295 CNS
  TGI: > 100 µM
K-562 leukemia
  TGI: > 100 µM
IGROV1 ovarian
  TGI: 73.3 µM
OVCAR-3 ovarian
  TGI: > 100 µM
SN12C renal
  TGI: > 100 µM
SF-268 CNS
  TGI: > 100 µM
OVCAR-8 ovarian
  TGI: > 100 µM
CCRF-CEM leukemia
  TGI: > 100 µM

## CCc1cccc(C)c1NC(=O)C(=O)Cc1nc2ccccc2o1
SW-620 colon
  TGI: > 100 µM
OVCAR-5 ovarian
  TGI: > 100 µM
MALME-3M melanoma
  TGI: > 100 µM
HOP-92 NSCLC
  TGI: > 100 µM
DMS 114 small cell lung
  TGI: > 100 µM
SK-MEL-2 melanoma
  TGI: > 100 µM
SNB-19 CNS
  TGI: > 100 µM
SK-OV-3 ovarian
  TGI: > 100 µM
OVCAR-4 ovarian
  TGI: > 100 µM
KM20L2 colon
  TGI: > 100 µM
M14 melanoma
  TGI: > 100 µM
NCI-H23 lung
  TGI: > 100 µM
HOP-18 NSCLC
  TGI: > 100 µM
COLO 205 colon
  TGI: > 100 µM
UACC-257 melanoma
  TGI: > 100 µM
MOLT-4 leukemia
  TGI: > 100 µM
SK-MEL-28 melanoma
  TGI: > 100 µM
LXFL 529 NSCLC
  TGI: > 100 µM
CAKI-1 renal
  TGI: > 100 µM
EKVX NSCLC
  TGI: > 100 µM
786-0 renal
  TGI: > 100 µM
NCI-H522 lung
  TGI: > 100 µM
HT29 colon
  TGI: > 100 µM
RPMI-8226 leukemia
  TGI: > 100 µM
A498 renal
  TGI: > 100 µM
HL-60(TB) leukemia
  TGI: > 100 µM
TK-10 renal
  TGI: > 100 µM
U251 CNS
  TGI: > 100 µM
M19-MEL melanoma
  TGI: > 100 µM
ACHN renal
  TGI: > 100 µM
LOX IMVI melanoma
  TGI: > 100 µM
UO-31 renal
  TGI: > 100 µM
SNB-78 CNS
  TGI: > 100 µM
XF 498 CNS
  TGI: > 100 µM
NCI-H226 lung
  TGI: > 100 µM
HCT-116 colon
  TGI: > 100 µM
SF-295 CNS
  TGI: > 100 µM
HCT-15 colon
  TGI: > 100 µM
K-562 leukemia
  TGI: > 100 µM
IGROV1 ovarian
  TGI: > 100 µM
OVCAR-3 ovarian
  TGI: > 100 µM
UACC-62 melanoma
  TGI: > 100 µM
SN12C renal
  TGI: > 100 µM
HCC-2998 colon
  TGI: > 100 µM
SF-539 CNS
  TGI: > 100 µM
RXF 393 renal
  TGI: > 100 µM
SF-268 CNS
  TGI: > 100 µM
SR leukemia
  TGI: > 100 µM
OVCAR-8 ovarian
  TGI: > 100 µM
DLD-1 colon
  TGI: > 100 µM
CCRF-CEM leukemia
  TGI: > 100 µM
HOP-62 NSCLC
  TGI: > 100 µM
NCI-H460 lung
  TGI: > 100 µM
